Experimental data reported in US12698324B2, “Cystic lymphangioma treatment drug” (National University Corporation University of Toyama, priority 2020, dated 2026).

System: cystic lymphangioma of PDGFRβ knockout mice
Assay: Therapy experiment in cystic lymphangioma of PDGFRβ knockout mice (diameter of LYVE1-positive lymph vessels)
Type: in vivo, mouse
Details: intraperitoneal three times a week (Erlotinib 50 mg/kg; antibody 5 μg/body), compared with the group of PDGFRβ knockout mice without treatment
Description: To PDGFRβ knockout mice, a neutralizing antibody against amphiregulin (AF989, R&D Systems Inc.) and Erlotinib having EGFR inhibitory activity (Selleck Biotech) were administered for the purpose of treating cystic lymphangioma. The neutralizing antibody against amphiregulin was dissolved in PBS at 25 μg/mL and administered intraperitoneally at 5 μg/body three times a week. Erlotinib was dissolved in DMSO at 50 mg/mL and administered intraperitoneally at 50 mg/kg three times a week. A group of PDGFRβ knockout mice without treatment and a control group of mice in which PDGFRβ was not knocked out were also prepared.
The tissues of PDGFRβ knockout mice were fixed with paraformaldehyde (PFA). Paraffin sections were prepared using fixed samples. The tissue sections were washed with a buffer and antigen-retrieved by heating in a microwave oven for 5 minutes using a commercial retrieval solution. Next, each sample was washed with a buffer solution and the tissues or the cells were subjected to a commercial blocking solution (room temperature, one hour).
Next, each sample was washed with a buffer and subjected to an anti-LYVE1 antibody (Abcam, a primary antibody) at optimum concentration (4° C., overnight). […] The obtained sample was observed and photographed with a fluorescence microscope.
The diameter of each lymph vessel was measured with ImageJ imaging software based on the photographed images. […]

## C#Cc1cccc(Nc2ncnc3cc(OCCOC)c(OCCOC)cc23)c1 [Erlotinib]
  diameter of dilated lymph vessels: significantly reduced
